Measured values from ChEMBL document CHEMBL1201862, “PubChem BioAssay data set” (2004).
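Values below derive from 48-hour exposures of cells grown in 96-well plates, with endpoints linearly interpolated between the two concentrations bracketing the appropriate inhibition level. GI50 = concentration required for 50% inhibition of growth.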 Activity calls are given as the source filed them. Cut-off read from the data, not from the text of the source: active = GI50 up to about 1.1 µM and inactive = higher. Where a SMILES comes first, the peptide text is derived from it. [ ]: non-standard residue; d: D form. The star is where a group is joined. ξ: configuration not given here. NMeF = CN[C@@H](Cc1ccccc1)C(=O)O; NMeV = CN[C@H](C(=O)O)C(C)C; ξNMeN = CNC(CC(N)=O)C(=O)O; NMeA = CN[C@@H](C)C(=O)O; ξNMeV = CNC(C(=O)O)C(C)C; Boc = CC(C)(C)OC(=O)*

Experiments:
Assay in all cases: inhibition of tumour cell growth, NCI panel, 48 h
CCRF-CEM = test system: CCRF-CEM
OVCAR-5 = test system: OVCAR-5
SNB-75 = test system: SNB-75
SF-295 = test system: SF-295
A549 = test system: A549
RXF 393 = test system: RXF 393
M19-MEL = test system: M19-MEL
MOLT-4 = test system: MOLT-4
UO-31 = test system: UO-31
SN12C = test system: SN12C
HOP-92 = test system: HOP-92
HOP-62 = test system: HOP-62
UACC-62 = test system: UACC-62
NCI-H460 = test system: NCI-H460
SF-539 = test system: SF-539
MDA-MB-435 = test system: MDA-MB-435
MDA-N = test system: MDA-N
T47D = test system: T47D
MCF7 = test system: MCF7
MDA-MB-231 = test system: MDA-MB-231

Compound | GI50 (CCRF-CEM) | GI50 (OVCAR-5) | GI50 (SNB-75) | GI50 (SF-295) | GI50 (A549) | GI50 (RXF 393) | GI50 (M19-MEL) | GI50 (MOLT-4) | GI50 (UO-31) | GI50 (SN12C) | GI50 (HOP-92) | GI50 (HOP-62) | GI50 (UACC-62) | GI50 (NCI-H460) | GI50 (SF-539) | GI50 (MDA-MB-435) | GI50 (MDA-N) | GI50 (T47D) | GI50 (MCF7) | GI50 (MDA-MB-231)
CCC(=O)N/N=C(\C=C\c1cccc(O)c1)c1sc(Nc2ccc(C)cc2[N+](=O)[O-])nc1C | 99.1 µM (inactive) | > 100 µM (inactive) | 14.9 µM (inactive) | 48.4 µM (inactive) | > 100 µM (inactive) | 10.8 µM (inactive) | > 100 µM (inactive) | > 100 µM (inactive) | > 100 µM (inactive) | > 100 µM (inactive) | 13.7 µM (inactive) | > 100 µM (inactive) | > 100 µM (inactive) | > 100 µM (inactive) | 32.7 µM (inactive) | – | – | – | – | –
O=C(O)c1ccc(S(=O)(=O)c2ccccc2)c([N+](=O)[O-])c1 | > 100 µM (inactive) | > 100 µM (inactive) | > 100 µM (inactive) | > 100 µM (inactive) | > 100 µM (inactive) | > 100 µM (inactive) | > 100 µM (inactive) | > 100 µM (inactive) | > 100 µM (inactive) | > 100 µM (inactive) | > 100 µM (inactive) | > 100 µM (inactive) | > 100 µM (inactive) | > 100 µM (inactive) | > 100 µM (inactive) | – | – | – | – | –
COc1ccccc1/C=C1\CCC(CN(C)C)C1=O (stereo not drawn) | 1.5 µM (inactive) | 12.7 µM (inactive) | 8.49 µM (inactive) | 15.2 µM (inactive) | 20.1 µM (inactive) | 3.84 µM (inactive) | 2.78 µM (inactive) | 4.61 µM (inactive) | 7.74 µM (inactive) | 2.48 µM (inactive) | 2.99 µM (inactive) | 19.5 µM (inactive) | 4.21 µM (inactive) | 19.6 µM (inactive) | 7.41 µM (inactive) | 8.83 µM (inactive) | 4.09 µM (inactive) | 3.58 µM (inactive) | 2.12 µM (inactive) | 2.43 µM (inactive)
CCOc1ccc(/N=C(/NC(=O)c2ccccc2)SC)cc1 | 87.1 µM (inactive) | > 100 µM (inactive) | > 100 µM (inactive) | > 100 µM (inactive) | > 100 µM (inactive) | > 100 µM (inactive) | > 100 µM (inactive) | > 100 µM (inactive) | > 100 µM (inactive) | > 100 µM (inactive) | > 100 µM (inactive) | > 100 µM (inactive) | > 100 µM (inactive) | > 100 µM (inactive) | > 100 µM (inactive) | – | – | – | – | –
C[C@H]1C/C=C/[C@H]2[C@@H]3O[C@]3(C)[C@@H](C)[C@H]3[C@H](Cc4ccccc4)NC(=O)[C@]32OC(=O)O/C=C/[C@@](C)(O)C1=O [CYTOCHALASIN E] | 0.021 µM (active) | 11.3 µM (inactive) | 0.0102 µM (active) | – | 0.0253 µM (active) | 0.0111 µM (active) | 0.0759 µM (active) | 8.59 µM (inactive) | 0.0199 µM (active) | 3.16 µM (inactive) | 0.0239 µM (active) | 0.0206 µM (active) | 0.1 µM (active) | 0.0161 µM (active) | 0.0169 µM (active) | 18.9 µM (inactive) | 0.0231 µM (active) | – | 0.0292 µM (active) | < 0.01 µM (active)
COC(=O)[C@H](C)N(C)C(=O)C(CC(N)=O)N(C)C(=O)[C@H](Cc1ccccc1)N(C)C(=O)[C@@H]1CCCN1C(=O)[C@H](C(C)C)N(C)C(=O)C(C(C)C)N(C)C(=O)[C@@H](NC(=O)OC(C)(C)C)C(C)C (stereo partly drawn) (Boc-V[ξNMeV][NMeV]P[NMeF][ξNMeN][NMeA]-OMe) | 13.6 µM (inactive) | > 50 µM (inactive) | 44 µM (inactive) | > 50 µM (inactive) | > 50 µM (inactive) | 37.6 µM (inactive) | 18.4 µM (inactive) | 24.5 µM (inactive) | > 50 µM (inactive) | > 50 µM (inactive) | 29 µM (inactive) | > 50 µM (inactive) | > 50 µM (inactive) | > 50 µM (inactive) | > 50 µM (inactive) | > 50 µM (inactive) | > 50 µM (inactive) | > 50 µM (inactive) | > 50 µM (inactive) | > 50 µM (inactive)
O=[N+]([O-])c1ccc(/C=N/C2CCCCC2)cc1 | > 100 µM (inactive) | > 100 µM (inactive) | > 100 µM (inactive) | > 100 µM (inactive) | > 100 µM (inactive) | > 100 µM (inactive) | > 100 µM (inactive) | > 100 µM (inactive) | > 100 µM (inactive) | > 100 µM (inactive) | > 100 µM (inactive) | > 100 µM (inactive) | > 100 µM (inactive) | > 100 µM (inactive) | > 100 µM (inactive) | – | – | – | – | –
C#CCN(C(=O)C(F)(F)F)c1ccc(C(=O)c2ccc(N(CC#C)C(=O)C(F)(F)F)cc2)cc1 | 25.1 µM (inactive) | 49.9 µM (inactive) | 43.4 µM (inactive) | 37.8 µM (inactive) | 84.9 µM (inactive) | 35.3 µM (inactive) | 35.5 µM (inactive) | 15.1 µM (inactive) | 59.7 µM (inactive) | 34.9 µM (inactive) | 34.8 µM (inactive) | 48.2 µM (inactive) | 21.6 µM (inactive) | 33.8 µM (inactive) | 37.8 µM (inactive) | – | – | – | – | –
